In test [1] the test system is claudin-11 mRNA expression in AGS gastric cancer cells. The test can be described thus: Claudin-11 mRNA re-expression in AGS cells after demethylating treatment (qRT-PCR). On the set-up: claudin-11 mRNA expression, ratio of treated vs. untreated cells: dose or concentration left out as unconfirmed. It counts as cell-based. An excerpt:
FIG. 23. Claudin-11 mRNA re-expression in AGS gastric cancer cells after treatment with 5-Aza-dC. AGS is a gastric cancer cell line manifesting hypermethylation of the claudin-11 promoter in conjunction with absent claudin-11 mRNA expression (FIG. 17). Total RNAs from AGS cells before and after 5-aza-2-deoxycytidine treatment were subjected to quantitative real-time RT-PCR analysis. The Y-axis represents the expression ratio of 5-aza-dC-treated vs. untreated cells. […] This restoration of claudin-11 expression after 5-Aza-dC treatment supports our hypothesis that claudin-11 is silenced by promoter hypermethylation in GC cells.
[…] Total RNAs extracted before vs. after treatment were subjected to qRT-PCR for CLDN11.

The test system of a further test is Barx1 expression in AGS. In words: Barx1 mRNA re-expression in AGS after 5-Aza-dC treatment. It is filed as cell-based. Particulars: AGS cells after treatment.

For the compound `Nc1ncn([C@H]2C[C@H](O)[C@@H](CO)O2)c(=O)n1` [5-Aza-dC, 5-aza-2-deoxycytidine], the “CLDN11 mRNA re-expression” value in test [1] (1 μM, varying time intervals) is reported as “CLDN11 mRNA became more re-expressed”. The “claudin-11 mRNA expression, ratio of treated vs. untreated cells” value in test [1] (first 72 hrs. of treatment) was “time-dependent increase in claudin-11 mRNA expression”. The “Barx1 mRNA re-expression” value was “restoration of Barx1 expression” with Barx1 expression in AGS and “BARX mRNA re-expression” in the test with Barx1 expression in AGS (listed as 5-AzaC).

(Values after patent US10648035B2, “Methods and compositions for diagnosing and treating gastric cancer” (THE JOHNS HOPKINS UNIVERSITY, priority 2012, dated 2020).)
